In one data set the target is T1, α1B adrenoceptor (Rattus norvegicus, UniProt P15823).
T1 construct: from tissue; host or cells: rat liver membranes
T1 sequence (P15823 1-515): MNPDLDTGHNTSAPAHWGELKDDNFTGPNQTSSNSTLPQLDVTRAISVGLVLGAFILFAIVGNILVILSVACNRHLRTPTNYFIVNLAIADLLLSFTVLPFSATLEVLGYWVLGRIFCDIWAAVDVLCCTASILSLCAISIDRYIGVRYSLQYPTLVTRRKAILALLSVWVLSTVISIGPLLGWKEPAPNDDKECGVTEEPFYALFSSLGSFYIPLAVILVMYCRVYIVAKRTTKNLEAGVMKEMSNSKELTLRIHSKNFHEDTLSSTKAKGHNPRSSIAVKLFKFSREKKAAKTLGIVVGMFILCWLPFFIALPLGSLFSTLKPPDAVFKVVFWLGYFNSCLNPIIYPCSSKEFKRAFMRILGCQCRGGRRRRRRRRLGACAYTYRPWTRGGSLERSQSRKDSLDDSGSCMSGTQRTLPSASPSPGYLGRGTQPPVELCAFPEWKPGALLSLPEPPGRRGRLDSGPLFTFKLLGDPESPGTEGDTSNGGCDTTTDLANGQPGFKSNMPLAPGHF
Briefly: Receptor binding assay, displacement of [3H]prazosin, rat liver membranes. The settings on record: [3H]prazosin displacement, rat liver membranes; read-out: α1B (Rat liver) Ki. How it is done: Receptor binding assays were performed using native α-adrenoceptors. The affinity of different compounds for α1A and α1B adrenoceptor subtypes was evaluated by studying their ability to displace specific [^3H]prazosin binding from the membranes of rat submaxillary and liver respectively (Michel et al, Br J Pharmacol, 98, 883-889 (1989)). The binding assays were performed according to U'Prichard et al. (Eur J Pharmacol, 50:87-89 (1978)) with minor modifications.
(§1) Submaxillary glands were isolated immediately after sacrifice. The liver was perfused with buffer (Tris HCl 50 mM, NaCl 100 mM, 10 mM EDTA pH 7.4). The tissues were homogenised in 10 volumes of buffer (Tris HCl 50 mM, NaCl 100 mM, EDTA 10 mM, pH 7.4). The homogenate was filtered through two layers of wet gauze and filtrate was centrifuged at 500 g for 10 min. The supernatant was subsequently centrifuged at 40,000 g for 45 min. The pellet thus obtained was resuspended in the same volume of assay buffer (Tris HCl 50 mM, EDTA 5 mM, pH 7.4) and were stored at −70° C. until the time of assay.
The membrane homogenates (150-250 μg protein) were incubated in 250 μl of assay buffer (Tris HCl 50 mM, EDTA 5 mM, pH 7.4) at 24-25° C. for 1 h. Non-specific binding was determined in the presence of 300 nM prazosin. The incubation was terminated by vacuum filtration over GF/B fibre filters. The filters were then washed with ice cold 50 mM Tris HCl buffer (pH 7.4). The filtermats were dried and bound radioactivity retained on filters was counted.The IC50 & Kd were estimated by using the non-linear curve fitting program using G Pad Prism software. The value of inhibition constant Ki was calculated from competitive binding studies by using Cheng & Prusoff equation (Cheng & Prusoff, Biochem Pharmacol, 1973,22: 3099-3108), Ki=IC50/(1+L/Kd) where L is the concentration of [^3H]prazosin used in the particular experiment (Table I).
For orientation: Displacement assays read how much labelled ligand stays bound in the presence of the test substance.

Another data set has as its target T2, α1D adrenoceptor (aorta) (Rattus norvegicus, UniProt P23944).
T2 construct: Isolated tissues were mounted in organ bath containing Krebs Henseleit buffer; from tissue; host or cells: isolated aorta of male wistar rats
T2 sequence (P23944 1-561): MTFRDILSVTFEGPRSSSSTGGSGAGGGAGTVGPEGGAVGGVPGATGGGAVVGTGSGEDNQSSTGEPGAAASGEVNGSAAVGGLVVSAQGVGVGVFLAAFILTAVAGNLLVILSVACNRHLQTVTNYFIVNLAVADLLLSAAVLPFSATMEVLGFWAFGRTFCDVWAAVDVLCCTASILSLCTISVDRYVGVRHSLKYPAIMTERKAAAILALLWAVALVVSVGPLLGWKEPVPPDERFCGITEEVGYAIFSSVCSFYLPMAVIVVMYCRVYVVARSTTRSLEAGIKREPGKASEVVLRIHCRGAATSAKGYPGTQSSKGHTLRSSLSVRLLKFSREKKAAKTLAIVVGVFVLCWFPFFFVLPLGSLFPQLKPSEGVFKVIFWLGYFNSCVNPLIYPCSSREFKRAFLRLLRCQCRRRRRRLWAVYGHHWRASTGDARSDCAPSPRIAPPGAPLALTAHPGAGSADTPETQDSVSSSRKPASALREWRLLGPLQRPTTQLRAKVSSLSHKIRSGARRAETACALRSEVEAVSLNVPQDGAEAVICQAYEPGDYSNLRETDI
Put plainly: In vitro functional study, antagonism of norepinephrine-induced contraction of aorta. Type of data set: biochemical. The settings on record: tested compound at 0.1, 1 and 10 mM, read-out: α Adrenoceptor Subtype (pKB) α1D (converted). The source says: (§2) In order to study selectivity of action of these compounds towards different α-adrenoceptor subtypes, the ability of these compounds to antagonise α1-adrenoceptor agonist induced contractile response on aorta (α1Dprostate (α1A and spleen (α1B was studied. Aorta and spleen tissues were isolated from urethane anaesthetised (1.5 gm/kg) male wistar rats. Isolated tissues were mounted in organ bath containing Krebs Henseleit buffer of following composition (mM): NaCl 118; KCl 4.7; CaCl2 2.5; MgSO4. 7H2O 1.2; NaHCO3 25; KH2PO41.2; glucose 11.5. Buffer was maintained at 37° C. and aereated with a mixture of 95% O2 and 5% CO2. A resting tension of 2 g (aorta) or 1 g (spleen and prostate)was applied to tissues. Contractile response was monitored using a force displacement transducer and recorded on chart recorders. Tissues were allowed to equilibrate for 2 hours. At the end of equilibration period, concentration response curves to norepinephrine (aorta) and phenylepinephrine (spleen and prostate) were obtained in absence and presence of tested compound (at concentration of 0.1,1 and 10 mM). Antagonist affinity was calculated and expressed as pKB vales in Table II.

Data set [1] concerns the target T3, α1A adrenoceptor (prostate) (Rattus norvegicus, UniProt P43140).
T3 construct: from tissue; host or cells: isolated prostate tissue
T3 sequence (P43140 1-466): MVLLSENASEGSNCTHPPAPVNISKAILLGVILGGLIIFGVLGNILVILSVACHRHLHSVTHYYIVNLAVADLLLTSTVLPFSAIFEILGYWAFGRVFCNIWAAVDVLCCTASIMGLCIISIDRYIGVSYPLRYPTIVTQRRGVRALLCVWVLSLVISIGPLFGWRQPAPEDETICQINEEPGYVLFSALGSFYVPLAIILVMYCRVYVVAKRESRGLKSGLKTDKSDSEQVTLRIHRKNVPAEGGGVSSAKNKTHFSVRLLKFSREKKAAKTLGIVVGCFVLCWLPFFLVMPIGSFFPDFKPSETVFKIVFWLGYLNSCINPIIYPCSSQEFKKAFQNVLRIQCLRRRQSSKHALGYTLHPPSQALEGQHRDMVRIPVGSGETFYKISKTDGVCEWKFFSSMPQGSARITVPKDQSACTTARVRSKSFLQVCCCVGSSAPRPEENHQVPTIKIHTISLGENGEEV
Briefly: In vitro functional study, antagonism of phenylepinephrine-induced contraction of prostate. Type of data set: biochemical. The note with it: for Kb: prostate, phenylepinephrine, tested compound at 0.1, 1 and 10 mM, read-out: α Adrenoceptor Subtype (pKB) α1A (converted).
Source text: as §2

Data set [2] deals with T4, α1B adrenoceptor (spleen) (Rattus norvegicus, UniProt P15823).
T4 construct: Isolated tissues were mounted in organ bath containing Krebs Henseleit buffer; from tissue; host or cells: isolated spleen of male wistar rats
T4 sequence (P15823 1-515): T1 sequence (P15823 1-515)
Briefly: In vitro functional study, antagonism of phenylepinephrine-induced contraction of spleen. Type of data set: biochemical. The note with it: tested compound at 0.1, 1 and 10 mM, read-out: α Adrenoceptor Subtype (pKB) α1B (converted).
Source text: as §2

Another data set concerns the target T5, α1A adrenoceptor (Rattus norvegicus, UniProt P43140).
T5 construct: from tissue; host or cells: rat submaxillary gland membranes
T5 sequence (P43140 1-466): T3 sequence (P43140 1-466)
Put plainly: Receptor binding assay, displacement of [3H]prazosin, rat submaxillary membranes. The note with it: for Ki: [3H]prazosin displacement, rat submaxillary membranes, read-out: α1A (Rat submaxillary) Ki; for Selectivity α1B/α1A: ratio of Ki α1B (rat liver) / α1A (rat submaxillary). The method, then:
Receptor binding assays were performed using native α-adrenoceptors.
as §1
The membrane homogenates (150-250 μg protein) were incubated in 250 μl of assay buffer (Tris HCl 50 mM, EDTA 5 mM, pH 7.4) at 24-25° C. for 1 h. Non-specific binding was determined in the presence of 300 nM prazosin. The incubation was terminated by vacuum filtration over GF/B fibre filters. The filters were then washed with ice cold 50 mM Tris HCl buffer (pH 7.4). The filtermats were dried and bound radioactivity retained on filters was counted.The IC50 & Kd were estimated by using the non-linear curve fitting program using G Pad Prism software.

The mark [3] stands for this setting: functional assays, from pKB values.

Molecules are shown by their SMILES. Where only a bound is given, the exact number is not on record here.

Consider `COc1ccc(F)cc1N1CCN(CCCN2C(=O)C3CC=CCC3C2=O)CC1.Cl` (centres unmarked) [Compound 08, 2-[3-{4-(2-Methoxy-5-fluorophenyl)piperazin-1-yl}propyl]-3a,4,7,7a-tetrahydro-1H-isoindole-1,3(2H)-dione hydrochloride], for which the melting point (in general, the temperature, or range, at which the solid turns liquid) was 163 to 165 °C. Moreover, the Ki (commonly the equilibrium dissociation constant of an inhibitor or competing ligand from its target) on α1B adrenoceptor came to 29 nM. The Kb at α1D adrenoceptor (aorta) was 0.891 nM. Moreover, in data set [1] (setting [3]), the “Selectivity α1A/α1B” value was 3.4. In addition, in data set [1], the Kb was 1.17 nM. Moreover, the Kb in data set [2] was 3.98 nM. Further, on α1A adrenoceptor, the inhibition constant Ki is 0.34 nM and the “Selectivity α1B/α1A” value is 85.
As to `CCCCCCOc1ccccc1N1CCN(CCCN2C(=O)C3CC=CCC3C2=O)CC1.Cl` (centres unmarked) [Compound 25, 2-[3-{4-(2-n-Hexyloxyphenyl)piperazin-1-yl}propyl]-3a,4,7,7a-tetrahydro-1H-isoindole-1,3(2H)-dione hydrochloride], the melting point fell in the range of 165 to 166 °C. The inhibition constant Ki at α1B adrenoceptor was over 500 nM. For the same molecule, at α1D adrenoceptor (aorta), the Kb was 1 nM. In addition, the “Selectivity α1A/α1B” value in data set [1] (setting [3]) was found to be 54. In data set [1], the Kb is 1.26 nM. Further, the Kb in data set [2] is 67.6 nM. Also, on α1A adrenoceptor, the Ki worked out at 3.3 nM and the “Selectivity α1B/α1A” value is given as over 151.
Molecule `Cc1ccc(Cl)cc1N1CCN(CCCN2C(=O)C3CC=CCC3C2=O)CC1.Cl` (centres unmarked) [Compound 12, 2-[3-{4-(2-Methyl-5-chlorophenyl)piperazin-1-yl}propyl]-3a,4,7,7a-tetrahydro-1H-isoindole-1,3(2H)-dione hydrochloride] showed a melting point of 231 to 232 °C. Further, the inhibitory constant (Ki) at α1B adrenoceptor came to 51.3 nM. For the same molecule, at α1A adrenoceptor, the inhibition constant (Ki) worked out at 8.66 nM and the “Selectivity α1B/α1A” value was 5.9.
Molecule `Cl.O=C1C2CC=CCC2C(=O)N1CCCN1CCN(CC=Cc2ccccc2)CC1` (centres unmarked) [Compound 15, 2-[3-{4-(Cinnamyl)piperazin-1-yl}propyl]-3a,4,7,7a-tetrahydro-1H-isoindole-1,3(2H)-dione hydrochloride] registered a melting point of 263 to 265 °C. For the same molecule, at α1B adrenoceptor, the inhibition constant (Ki) was over 500 nM. Also, on α1A adrenoceptor, the Ki was over 500 nM and the “Selectivity α1B/α1A” value is given as 1.
`Cl.O=C1C2CC=CCC2C(=O)N1CCCN1CCN(c2ccc(F)cc2)CC1` (centres unmarked) [Compound 04, 2-[3-{4-(4-Fluorophenyl)piperazin-1-yl}propyl]-3a,4,7,7a-tetrahydro-1H-isoindole-1,3(2H)-dione hydrochloride]: the melting point is 228 to 230 °C. Besides, the Ki at α1B adrenoceptor is 363 nM. At α1A adrenoceptor, the Ki was found to be 80 nM and the “Selectivity α1B/α1A” value was 4.5.
On to `Cc1cccc(C)c1N1CCN(CCCN2C(=O)C3CC=CCC3C2=O)CC1.Cl` (centres unmarked) [Compound 22, 2-[3-{4-(2,6-Dimethylphenyl)piperazin-1-yl}propyl]-3a,4,7,7a-tetrahydro-1H-isoindole-1,3(2H)-dione hydrochloride], for which the melting point fell in the range of 223 to 224 °C. Besides, the Ki at α1B adrenoceptor is over 500 nM. Also, on α1A adrenoceptor, the inhibitory constant (Ki) was determined as 208 nM and the “Selectivity α1B/α1A” value is recorded as 2.4.
The molecule `CCOc1ccccc1N1CCN(C(C)CCN2C(=O)C3CC=CCC3C2=O)CC1.Cl` (centres unmarked) [Compound 31, 2-[3-{4-(2-Ethoxyphenyl)piperazin-1-yl}-3-methylpropyl]-3a,4,7,7a-tetrahydro-1H-isoindole-1,3(2H)-dione hydrochloride] came in with a melting point of 246 to 248 °C. In addition, the Ki at α1B adrenoceptor is 232 nM. Further, on α1D adrenoceptor (aorta), the Kb was 16.2 nM. Also, the “Selectivity α1A/α1D” value in data set [1] (setting [3]) came out at 3.24. The Kb in data set [1] is 5.01 nM. At α1A adrenoceptor, the Ki was determined as 2.1 nM and the “Selectivity α1B/α1A” value came out at 110.
`Cl.O=C1C2CC=CCC2C(=O)N1CCCN1CCN(c2cccc(Cl)c2)CC1` (centres unmarked) [Compound 02, 2-[3-{4-(3-Chlorophenyl)piperazin-1-yl}propyl]-3a,4,7,7a-tetrahydro-1H-isoindole-1,3(2H)-dione hydrochloride] gave a melting point of 221 to 223 °C. Also, the inhibition constant Ki at α1B adrenoceptor turned out to be 398 nM. In addition, at α1A adrenoceptor, the Ki was 83 nM and the “Selectivity α1B/α1A” value amounted to 4.8.
For `Cc1ccc(N2CCN(CCCN3C(=O)C4CC=CCC4C3=O)CC2)cc1C.Cl` (centres unmarked) [Compound 07, 2-[3-{4-(3,4-Dimethylphenyl)piperazin-1-yl}propyl]-3a,4,7,7a-tetrahydro-1H-isoindole-1,3(2H)-dione hydrochloride] the same measures were 194 to 196 °C, over 500 nM, 183 nM and 2.7.

Values taken from patent publication US6914064B2, “1,4-Disubstituted piperazine derivatives useful as uro-selective α1-adrenoceptor blockers” (Ranbaxy Laboratories Limited, priority 2000, dated 2005).
